Laboratory results published in BindingDB's records for PubMed 37122539 (Virginia Tech, 2023).
≈ marks a conversion by molar mass, not a printed value.

Test system: Enterococcus faecalis
Experiment: Antibacterial activity against Enterococcus faecalis ATCC 29212 incubated for 16 hrs by broth microdilution method

Row | SMILES | IC50
1 | CCCCCCOC(=O)[C@H]1O[C@@H](n2ccc(N)nc2=O)C=C[C@@H]1NC(=O)C[C@@H](N)CCN(C)C(=N)N | 11 µg/mL (≈ 21.7 µM)
2 | CN(CC[C@H](N)CC(=O)N[C@H]1C=C[C@H](n2ccc(N)nc2=O)O[C@@H]1C(=O)OCCc1ccccc1)C(=N)N | 6.9 µg/mL (≈ 13.1 µM)
3 | CCCOC(=O)[C@H]1O[C@@H](n2ccc(N)nc2=O)C=C[C@@H]1NC(=O)C[C@@H](N)CCN(C)C(=N)N | 11 µg/mL (≈ 23.7 µM)
4 | CN(CC[C@H](N)CC(=O)N[C@H]1C=C[C@H](n2ccc(N)nc2=O)O[C@@H]1C(=O)OCc1ccccc1)C(=N)N | 15 µg/mL (≈ 29.3 µM)
5 | COC(=O)[C@H]1O[C@@H](n2ccc(N)nc2=O)C=C[C@@H]1NC(=O)C[C@@H](N)CCN(C)C(=N)N | 9.2 µg/mL (≈ 21.1 µM)
6 | CN(CC[C@H](N)CC(=O)N[C@H]1C=C[C@H](n2ccc(N)nc2=O)O[C@@H]1C(=O)O)C(=N)N | 53 µg/mL (≈ 125 µM)
7 | CCOC(=O)[C@H]1O[C@@H](n2ccc(N)nc2=O)C=C[C@@H]1NC(=O)C[C@@H](N)CCN(C)C(=N)N | 9.9 µg/mL (≈ 22 µM)
8 | CCCCOC(=O)[C@H]1O[C@@H](n2ccc(N)nc2=O)C=C[C@@H]1NC(=O)C[C@@H](N)CCN(C)C(=N)N | 16 µg/mL (≈ 33.4 µM)
9 | C#CCCCOC(=O)[C@H]1O[C@@H](n2ccc(N)nc2=O)C=C[C@@H]1NC(=O)C[C@@H](N)CCN(C)C(=N)N | 12 µg/mL (≈ 24.6 µM)
10 | CN(CC[C@H](N)CC(=O)N[C@H]1C=C[C@H](n2ccc(N)nc2=O)O[C@@H]1C(N)=O)C(=N)N | 13 µg/mL (≈ 30.8 µM)
